Holding throughout (type): functional, cell-based
For one assay, the system named is Daoy. Kind of assay: Cytotoxicity against human Daoy cell line by MTT assay. A general note: Tetrazolium assays rely on reduction of a dye to a coloured formazan, in cell work by metabolically active cells.
Another assay deals with WiDr. Kind of assay: Cytotoxicity against human WiDr cell line by MTT assay.
Another assay concerns HeLa. Briefly: Cytotoxicity against human HeLa cell line by MTT assay.
Another assay has as its system DLD-1. Briefly: Cytotoxicity against human DLD1 cell line by MTT assay.

Each structure is given as a SMILES string. Converted amounts (≈) assume the structure as drawn.

One may read the IC50 as the midpoint of a concentration-inhibition curve. In the case of `C=C1CC[C@@H]2CC[C@H](OC(=O)C/C(C)=C/[C@@H](OC(=O)c3ccccc3)C1)C(=O)C2(C)C`, the IC50 with Daoy and in the assay with WiDr was more than 20 µg/mL throughout.

Turning to `C=C1CC[C@@H]2CC[C@H](OC(=O)C/C(C)=C/[C@@H](OC(=O)c3ccc(Cl)cc3)C1)C(=O)C2(C)C`, the IC50 in the assay on Daoy and with WiDr was more than 20 µg/mL each time.

With `CC(=O)O[C@@H]1/C(C(C)C)=C\C=C(/C)CC/C=C(\C)CC[C@@H]2O[C@@]2(C)[C@H]1OC(C)=O`, the IC50 with Daoy is 16.9 µg/mL (≈ 41.8 µM); in the assay on WiDr it was 13.8 µg/mL (≈ 34.1 µM).

Turning to `C=C1CC[C@@H]2CC[C@H](OC(=O)C/C(C)=C/[C@@H](OC(C)=O)C1)C(=O)C2(C)C` [CESPITULACTONE A MONOACETATE], the IC50 with Daoy and in the assay on WiDr was more than 20 µg/mL throughout.

For `C=C1CC[C@@H]2CC[C@H](OC(=O)C/C(C)=C/[C@@H](O)C1)C(=O)C2(C)C` [CESPITULACTONE A], the IC50 is 3.69 µg/mL (≈ 11.5 µM) in the assay on HeLa, 9.98 µg/mL (≈ 31.1 µM) with DLD-1, more than 20 µg/mL in the assay with Daoy and more than 20 µg/mL in the assay with WiDr.

Take `C=C1CC[C@@H]2CCC3=C(C2(C)C)[C@@](OC)(C/C(C)=C/[C@@H](O)C1)OC3=O` [CESPITULACTONE B]: the IC50 in the assay with Daoy and in the assay with WiDr was more than 20 µg/mL in each case.

In the case of `C=C1CC[C@@H]2CCC3=C(C2(C)C)[C@@](O)(C/C(C)=C/[C@@H](O)C1)OC3=O` [CESPITULARIN D], the IC50 in the assay on Daoy and in the assay on WiDr was more than 20 µg/mL throughout.

For the molecule `C=C1CC[C@@H]2CCC3=C(C(=O)[C@@H](/C(C)=C/C(O)C1)[C@H]3O)C2(C)C` (stereo not given in full) [CESPITULARIN F], the IC50 in the assay with Daoy and in the assay with WiDr was more than 20 µg/mL each time.

Regarding `C=C1CC[C@@H]2CCC3=C(C(=O)[C@@H](/C(C)=C/[C@@H](OC(C)=O)C1)[C@H]3O)C2(C)C` [CESPITULARIN J], the half-inhibitory concentration (IC50) with Daoy and with WiDr was more than 20 µg/mL each time.

These data come from ChEMBL document CHEMBL1146998, “Cespitulactones A and B, new diterpenoids from Cespitularia taeniata” (Bioorg Med Chem Lett, 2006).
